Values after ≈ are worked out from the molar mass of the structure shown. Blank lines part the entries; values can stand above or below the molecule they belong to.
How the values were obtained:
[1] = test system: Plasmodium berghei; test: Antiplasmodial activity against luciferase expressing hepatic stage Plasmodium berghei sporozoites infected in human Huh-7 cells assessed as inhibition of parasite infection preincubated with cells for 1 hrs followed by parasite infection and measured after 48 hrs by bioluminescence assay; assay type: functional, organism-based
[2] = test system: Plasmodium falciparum; test: Antimalarial activity against Plasmodium falciparum K1 assessed as inhibition of parasite growth incubated for 72 hrs by DAPI-staining based microscopic analysis; assay type: functional, organism-based; details: K1, 72 h
[3] = test system: Plasmodium falciparum; test: Antimalarial activity against Plasmodium falciparum NF54 assessed as inhibition of parasite growth incubated for 72 hrs by DAPI-staining based microscopic analysis; assay type: functional, organism-based; details: NF54, 72 h
[4] = test system: Plasmodium falciparum; test: Antimalarial activity against chloroquine and quinine sensitive Plasmodium falciparum assessed as inhibition of parasite growth; assay type: functional, organism-based
[5] = test system: Plasmodium falciparum; test: Antimalarial activity against Plasmodium falciparum Cam3.I^R539T assessed as reduction in parasite survival at 700 nM measured after 6 hrs relative to control; assay type: functional
[6] = test system: Plasmodium falciparum; test: Antimalarial activity against Plasmodium falciparum Cam3.I^R539T assessed as reduction in parasite survival at 88 nM measured after 6 hrs relative to control; assay type: functional
[7] = test system: Plasmodium falciparum; test: Antimalarial activity against Plasmodium falciparum Cam3.I^R539T assessed as reduction in parasite survival at 49 nM measured after 6 hrs relative to control; assay type: functional
[8] = test system: Plasmodium falciparum; test: Antimalarial activity against Plasmodium falciparum Cam3.I^R539T assessed as reduction in parasite survival at 350 nM measured after 6 hrs relative to control; assay type: functional
[9] = test system: Plasmodium falciparum; test: Antimalarial activity against Plasmodium falciparum Cam3.I^R539T assessed as reduction in parasite survival at 175 nM measured after 6 hrs relative to control; assay type: functional
[10] = test system: Plasmodium falciparum; test: Antimalarial activity against chloroquine-resistant Plasmodium falciparum FCR3 infected in human erythrocytes assessed as inhibition of parasite growth incubated for 48 hrs by [3H]-hypoxanthine incorporation assay; assay type: functional, organism-based
[11] = test system: Plasmodium falciparum; test: Antimalarial activity against chloroquine-sensitive Plasmodium falciparum 3D7 infected in human erythrocytes assessed as inhibition of parasite growth incubated for 48 hrs by parasite lactate dehydrogenase based colorimetric assay; assay type: functional, organism-based; details: 3D7, 48 h
[12] = test system: Plasmodium falciparum; test: Antimalarial activity against Plasmodium falciparum 3D7 infected in human plasma assessed as inhibition of parasite growth by Giema staining based assay; assay type: functional, organism-based; details: 3D7, Plasma
[13] = test system: Plasmodium falciparum; test: Antimalarial activity against chloroquine and antifolate resistant Plasmodium falciparum K1 infected in human erythrocyte preincubated for 24 hrs followed by hypoxanthine addition and measured after 18 to 20 hrs by [3H]-hypoxanthine incorporation assay; assay type: functional, organism-based
[14] = test system: Plasmodium falciparum; test: Antimalarial activity against chloroquine-resistant Plasmodium falciparum K14 infected in human red blood cells assessed as inhibition of parasite growth incubated for 42 hrs by [3H]-hypoxanthine incorporation assay; assay type: functional, organism-based, Red blood cell; details: K14, Erythrocyte
[15] = test system: Plasmodium falciparum; test: Antimalarial activity against Plasmodium falciparum Dd2 assessed as inhibition of parasite growth; assay type: functional, organism-based
[16] = test system: Plasmodium falciparum; test: Antimalarial activity against Plasmodium falciparum D6 assessed as inhibition of parasite growth; assay type: functional, organism-based
[17] = test system: Plasmodium falciparum; test: Antimalarial activity against Plasmodium falciparum TM90C2B assessed as inhibition of parasite growth; assay type: functional, organism-based
[18] = test system: Plasmodium falciparum; test: Antimalarial activity against Plasmodium falciparum 7G8 assessed as inhibition of parasite growth; assay type: functional, organism-based
[19] = test system: Plasmodium falciparum; test: Antimalarial activity against Plasmodium falciparum 3D7 assessed as inhibition of parasite growth; assay type: functional, organism-based
[20] = test system: Plasmodium falciparum; test: Antimalarial activity against Plasmodium falciparum FCB assessed as inhibition of parasite growth; assay type: functional, organism-based
[21] = test system: Plasmodium falciparum; test: Antimalarial activity against Plasmodium falciparum 1 assessed as inhibition of parasite growth; assay type: functional, organism-based
[22] = test system: Plasmodium falciparum; test: Antimalarial activity against Plasmodium falciparum V1/S assessed as inhibition of parasite growth; assay type: functional, organism-based
[23] = test system: Plasmodium falciparum; test: Antimalarial activity against Plasmodium falciparum HB3 assessed as inhibition of parasite growth; assay type: functional, organism-based
[24] = test system: Plasmodium falciparum; test: Antimalarial activity against chloroquine sensitive Plasmodium falciparum NF54 assessed as inhibition of parasite growth by [3H]-hypoxanthine incorporation assay; assay type: functional, organism-based
[25] = test system: Plasmodium falciparum; test: Antimalarial activity against chloroquine resistant Plasmodium falciparum K1 assessed as inhibition of parasite growth by [3H]-hypoxanthine incorporation assay; assay type: functional, organism-based
[26] = test system: Plasmodium falciparum; test: Antimalarial activity against chloroquine-resistant Plasmodium falciparum K1 infected in human erythrocytes incubated for 72 hrs by parasite lactate dehydrogenase assay; assay type: functional, organism-based; details: K1, Erythrocyte
[27] = Cytotoxicity against human MRC5 cells assessed as inhibition of cell growth incubated for 7 days by MTT assay; assay type: toxicity, cell-based

- IC50 [1]: 2670 nM
SMILES: CC(C)(C)OC(=O)C1C(c2ccccc2)(c2ccccc2)C12C(=O)N1[C@@H](C(=O)OC(c3ccccc3)c3ccccc3)C(C)(C)S[C@@H]12 (stereo partly specified)

SMILES: C=CCOc1c2n(c3ccccc13)C=CC[C@@]21C(=O)c2ccccc2N1CC=C
- IC50 [2]: ≥ 5000 nM
- IC50 [3]: ≥ 5000 nM

SMILES: CC(C)OC(=O)C1=C2N=C(c3cccnc3)NN2C2=C(C(=O)CCC2)C12C(=O)Nc1ccc(F)cc12 (stereo unspecified)
- IC50 [4]: 454 nM

SMILES: CC1(C)CC(O)(Cc2ccc(C3CCC4(CC3)OOC3(O4)C4CC5CC(C4)CC3C5)cc2)CC(C)(C)N1 (stereo unspecified)
- Activity [5]: 0%
- Activity [6]: 0.17%
- Activity [7]: 1.29%
- Activity [8]: 0%
- Activity [9]: 0.12%

SMILES: COc1cc([C@@H]2c3cc(Br)ccc3NC3(C(=O)Nc4ccccc43)[C@H]2C)ccc1O (stereo partly specified)
- IC50 [10]: 1520 nM
- IC50 [11]: 1310 nM

SMILES: CCOC(=O)C1=C2N=C(c3cccnc3)NN2C2=C(C(=O)CCC2)C12C(=O)Nc1ccccc12 (stereo unspecified)
- IC50 [4]: 422 nM

SMILES: CC1=CC(=O)CC(C)(C)[C@@]12C=C[C@H](C)O2
- IC50 [12]: 27 nM

SMILES: C=CCN1C(=O)[C@@]2(c3ccccc31)C(c1ccccc1)C=CN1N3C=CC=CC3C(=O)[C@@]12C/C=C/c1ccccc1 (stereo partly specified)
- IC50 [13]: 8300 nM

SMILES: C=CCN1C(=O)[C@]2(CC=CN3c4ccccc4C(=O)[C@@]32CC=C)c2ccccc21
- IC50 [13]: 9300 nM

SMILES: O=C1OC[C@H](CN2C3=C4C(=O)c5ccccc5C4C[C@@H]4CO[C@@]3(O4)c3ccccc32)O1 (stereo partly specified)
- IC50 [2]: 9 nM
- IC50 [3]: 9 nM

SMILES: CC(=O)O[C@@H]1[C@H](C)[C@@H](C)O[C@@]2([C@@H]1C)[C@@H](C)C=C(C)C(=O)[C@@H]2C
- IC50 [12]: 16000 nM

SMILES: c1cc(C2CCC3(CC2)OOC2(O3)C3CC4CC(C3)CC2C4)ccc1OCCC1CCNCC1 (stereo unspecified)
- Activity [5]: 0%
- Activity [6]: 0%
- Activity [7]: 0.76%
- Activity [8]: 0%
- Activity [9]: 0%

SMILES: CCN(CC)c1ccc(N2C(=O)C(Oc3ccccc3)C23c2ccccc2-c2ccccc23)cc1 (stereo unspecified)
- IC50 [14]: 6400 nM

SMILES: CCOC(=O)C1=C2N=C(c3cccnc3)NN2C2=C(C(=O)CCC2)C12C(=O)Nc1ccc(F)cc12 (stereo unspecified)
- IC50 [4]: 122 nM

SMILES: FC1CCN(CCOc2ccc(C3CCC4(CC3)OOC3(OO4)C4CCCC3CCC4)cc2)CC1 (stereo unspecified)
- IC50 [15]: 7.7 nM
- IC50 [16]: 8.5 nM
- IC50 [17]: 7.3 nM
- IC50 [18]: 2.9 nM
- IC50 [19]: 5.1 nM
- IC50 [20]: 14 nM
- IC50 [21]: 4.2 nM
- IC50 [22]: 4.2 nM
- IC50 [23]: 4.2 nM

SMILES: NCC1CCC2(CC1)OOC1(O2)C2CC3CC(C2)CC1C3 (stereo unspecified)
- IC50 [24]: 0.42 ng/mL (≈ 1.43 nM)
- IC50 [25]: 0.39 ng/mL (≈ 1.33 nM)

SMILES: CC(C)(N)CNC(=O)CC1CCC2(CC1)OOC1(O2)C2CC3CC(C2)CC1C3 (stereo unspecified)
- IC50 [24]: 0.54 ng/mL (≈ 1.38 nM)
- IC50 [25]: 0.57 ng/mL (≈ 1.45 nM)

SMILES: COc1cc2c(cc1O)CCN1CC=C3C=C[C@H](OC)C[C@]321 [ERYSODINE]
- IC50 [26]: 6500 nM
- IC50 at 7 days [27]: > 64000 nM

SMILES: COc1cc2c(cc1OC)[C@]13C[C@@H](OC)C=CC1=CCN3CC2 [ERYSOTRINE]
- IC50 [26]: 20600 nM
- IC50 at 7 days [27]: > 64000 nM

SMILES: COc1cc2c(cc1O)[C@]13C[C@@H](OC)C=CC1=CCN3CC2 [ERYSOVINE]
- IC50 [26]: 4100 nM
- IC50 at 7 days [27]: > 64000 nM

SMILES: CO[C@H]1C=CC2=CCN3CCc4cc5c(cc4[C@]23C1)OCO5 [ERYTHRALINE]
- IC50 [26]: 7300 nM
- IC50 at 7 days [27]: > 64000 nM
